These results are taken from ChEMBL document CHEMBL1649296, “Modifying culture conditions in chemical library screening identifies alternative inhibitors of mycobacteria” (Antimicrob Agents Chemother, 2009).

Converted amounts (≈) assume the structure as drawn. Numbered stars: 1 amine (or outer) side, 2 acyl side, 3 side chain; on linkers, the order of the positions; unused ones are H or OH. Bridge positions count the residues as written; N and C are the ends. Square brackets hold non-standard residues; d marks the D form. Peptide text beside a SMILES is read from it. * marks the point of attachment. ξ: configuration not given here. X1 = N=C1NCCC([C@H](N[*:1])C(=O)[*:2])N1; ΔAla(Z-3-ureido) = NC(=O)N/C=C(\N)C(=O)O; ξβ3hOrn = NCCCC(N)CC(=O)*; Dap = NC[C@H](N)C(=O)O

Common to all, as to assay type: functional, organism-based
Test [1] has as its system Mycolicibacterium smegmatis. Put plainly: Antimycobacterial activity against Mycobacterium smegmatis assessed as growth inhibition in mid-logarithmic phase by spectrophotometry.
Test [2] relates to Mycolicibacterium smegmatis. Nature of the test: Antimycobacterial activity against Mycobacterium smegmatis by GFP-based fluorescence assay.
The test system of test [3] is Mycolicibacterium smegmatis. Nature of the test: Antimycobacterial activity against Mycobacterium smegmatis grown in Luria-Bertani broth medium assessed as growth inhibition in mid-logarithmic phase by spectrophotometry.
Test [4] concerns Mycolicibacterium smegmatis. Nature of the test: Antimycobacterial activity against Mycobacterium smegmatis grown in Luria-Bertani broth medium assessed as growth inhibition in mid-logarithmic phase by GFP-based fluorescence assay.
Test [5] concerns Mycolicibacterium smegmatis. Nature of the test: Antimycobacterial activity against Mycobacterium smegmatis grown in nitrogen -limited broth medium assessed as growth inhibition in mid-logarithmic phase by GFP-based fluorescence assay.
The test system of test [6] is Mycolicibacterium smegmatis. Nature of the test: Antimycobacterial activity against Mycobacterium smegmatis grown in carbon-limited broth medium assessed as growth inhibition in mid-logarithmic phase by spectrophotometry.
The test system of test [7] is Mycolicibacterium smegmatis. Put plainly: Antimycobacterial activity against Mycobacterium smegmatis grown in nitrogen -limited broth medium assessed as growth inhibition in mid-logarithmic phase by spectrophotometry.
The subject of test [8] is Mycolicibacterium smegmatis. Put plainly: Antimycobacterial activity against Mycobacterium smegmatis grown in carbon-limited broth medium assessed as growth inhibition in mid-logarithmic phase by GFP-based fluorescence assay.

`CC[C@@H](CO)NCCN[C@@H](CC)CO` [ETHAMBUTOL]: the half-maximal inhibitory concentration (IC50) in test [1] was 3.66 µM; in test [2] (read-out: IC50), 3.2 µM. Also, the MIC in test [1] and in test [2] was 12.5 µM (≈ 2.55 µg/mL) in each case.
Regarding `CN(C)[C@@H]1C(O)=C(C(N)=O)C(=O)[C@@]2(O)C(O)=C3C(=O)c4c(O)cccc4[C@@](C)(O)[C@H]3C[C@@H]12` [TETRACYCLINE], the 50% inhibitory concentration (IC50) in test [1] worked out at 0.41 µM; in test [2] (read-out: IC50), 0.33 µM. The MIC in test [1] and in test [2] was 6.25 µM (≈ 2.78 µg/mL) throughout.
As for `C[C@@H]1NC(=O)[C@@H](N)CNC(=O)[C@H](C2CCNC(=N)N2)NC(=O)/C(=C/NC(N)=O)NC(=O)[C@H](CNC(=O)CC(N)CCCN)NC1=O.N=C1NCCC([C@@H]2NC(=O)/C(=C/NC(N)=O)NC(=O)[C@H](CNC(=O)CC(N)CCCN)NC(=O)[C@H](CO)NC(=O)[C@@H](N)CNC2=O)N1` (stereo partly drawn) [CAPREOMYCIN] (H-[Dap]S[Dap](ξβ3hOrn)[ΔAla(Z-3-ureido)][X1]; lactam 1-C), the IC50 came to 2.12 µM in test [1] and 1.78 µM in test [2] (read-out: IC50). Also, the MIC in test [1] and in test [2] was 12.5 µM in each case.
With `CCc1cc(C(N)=S)ccn1` [ETHIONAMIDE], the IC50 in test [1] worked out at 7.66 µM; in test [2] (read-out: IC50), 6.75 µM. Moreover, the MIC in test [1] and in test [2] was 100 µM (≈ 16.6 µg/mL) each time.
In the case of `CO[C@H]1/C=C/O[C@@]2(C)Oc3c(C)c(O)c4c(O)c(c(/C=N/N5CCN(C)CC5)c(O)c4c3C2=O)NC(=O)/C(C)=C\C=C\[C@H](C)[C@H](O)[C@@H](C)[C@@H](O)[C@@H](C)[C@H](OC(C)=O)[C@@H]1C` [RIFAMPIN], the concentration for half-maximal inhibition (IC50) is 4.36 µM in test [1] and 3.11 µM in test [2] (read-out: IC50). The minimal inhibitory concentration (MIC) in test [1] and in test [2] was 6.25 µM (≈ 5.14 µg/mL) each time.
For the compound `CN[C@@H]1[C@H](O[C@H]2[C@H](O[C@H]3[C@H](O)[C@@H](O)[C@H](N=C(N)N)[C@@H](O)[C@@H]3N=C(N)N)O[C@@H](C)[C@]2(O)C=O)O[C@@H](CO)[C@H](O)[C@H]1O` [STREPTOMYCIN], the IC50 in test [1] came to 0.5 µM; in test [2] (read-out: IC50), 0.48 µM. Moreover, the MIC in test [1] and in test [2] was 1.56 µM (≈ 0.907 µg/mL) throughout.
`O=C(O)c1cn(C2CC2)c2cc(N3CCNCC3)c(F)cc2c1=O` [CIPROFLOXACIN]: the IC50 in test [1] is 1.98 µM; in test [2], 1.07 µM. The minimal inhibitory concentration (MIC) in test [1] and in test [2] was 12.5 µM (≈ 4.14 µg/mL) throughout.
Consider `CC1COc2c(N3CCN(C)CC3)c(F)cc3c(=O)c(C(=O)O)cn1c23` (stereo not drawn) [OFLOXACIN], for which the IC50 in test [3] (Mycolicibacterium smegmatis) is 2.03 µM; in test [4] (Mycolicibacterium smegmatis), 2.03 µM; in test [5] (Mycolicibacterium smegmatis) it was 1.73 µM; in test [6] (Mycolicibacterium smegmatis), 3.13 µM; in test [7] (Mycolicibacterium smegmatis) it was 1.73 µM; in test [8] (Mycolicibacterium smegmatis) it was 3.13 µM. In addition, the minimum inhibitory concentration (MIC) came out at 3.12 µM (≈ 1.13 µg/mL) in test [3] (Mycolicibacterium smegmatis); 3.12 µM (≈ 1.13 µg/mL) in test [4] (Mycolicibacterium smegmatis); 6.25 µM (≈ 2.26 µg/mL) in test [5] (Mycolicibacterium smegmatis); 6.25 µM (≈ 2.26 µg/mL) in test [6] (Mycolicibacterium smegmatis); 6.25 µM (≈ 2.26 µg/mL) in test [7] (Mycolicibacterium smegmatis); 6.25 µM (≈ 2.26 µg/mL) in test [8] (Mycolicibacterium smegmatis).
On to `Cc1c(C)c2c(c(C)c1O)CCC(C)(CN1CCN(c3cc(N4CCCC4)nc(N4CCCC4)n3)CC1)O2` (single isomer, unassigned), for which the IC50 in test [3] (Mycolicibacterium smegmatis) was above 50 µM; in test [4] (Mycolicibacterium smegmatis), above 50 µM; in test [5] (Mycolicibacterium smegmatis), 34.2 µM; in test [6] (Mycolicibacterium smegmatis) it was above 50 µM; in test [7] (Mycolicibacterium smegmatis) it was 34.2 µM; in test [8] (Mycolicibacterium smegmatis), above 50 µM. In addition, the MIC in test [3] (Mycolicibacterium smegmatis), in test [4] (Mycolicibacterium smegmatis), in test [5] (Mycolicibacterium smegmatis), in test [6] (Mycolicibacterium smegmatis), in test [7] (Mycolicibacterium smegmatis) and in test [8] (Mycolicibacterium smegmatis) was 50 µM (≈ 26 µg/mL) in each case.
Regarding `O=C(Nc1ccc([N+](=O)[O-])cc1Cl)c1cc(Cl)ccc1O` [NICLOSAMIDE], the IC50 in test [3] (Mycolicibacterium smegmatis) is 6.85 µM; in test [4] (Mycolicibacterium smegmatis), 6.85 µM; in test [5] (Mycolicibacterium smegmatis), 4.73 µM; in test [6] (Mycolicibacterium smegmatis) it was 3.31 µM; in test [7] (Mycolicibacterium smegmatis), 4.73 µM; in test [8] (Mycolicibacterium smegmatis) it was 3.31 µM. The MIC came out at 12.5 µM (≈ 4.09 µg/mL) in test [3] (Mycolicibacterium smegmatis); 12.5 µM (≈ 4.09 µg/mL) in test [4] (Mycolicibacterium smegmatis); 6.25 µM (≈ 2.04 µg/mL) in test [5] (Mycolicibacterium smegmatis); 6.25 µM (≈ 2.04 µg/mL) in test [6] (Mycolicibacterium smegmatis); 6.25 µM (≈ 2.04 µg/mL) in test [7] (Mycolicibacterium smegmatis); 6.25 µM (≈ 2.04 µg/mL) in test [8] (Mycolicibacterium smegmatis).
Regarding `CN(C)[C@@H]1C(O)=C(C(N)=O)C(=O)[C@@]2(O)C(O)=C3C(=O)c4c(O)ccc(Cl)c4[C@@H](O)[C@H]3C[C@@H]12` [DEMECLOCYCLINE], the 50% inhibitory concentration (IC50) in test [3] (Mycolicibacterium smegmatis) is 1.88 µM; in test [4] (Mycolicibacterium smegmatis) it was 1.88 µM; in test [5] (Mycolicibacterium smegmatis) it was 4.4 µM; in test [6] (Mycolicibacterium smegmatis) it was 5.92 µM; in test [7] (Mycolicibacterium smegmatis) it was 4.4 µM; in test [8] (Mycolicibacterium smegmatis) it was 5.92 µM. Besides, the MIC in test [3] (Mycolicibacterium smegmatis) worked out at 3.12 µM (≈ 1.45 µg/mL); in test [4] (Mycolicibacterium smegmatis), 3.12 µM (≈ 1.45 µg/mL); in test [5] (Mycolicibacterium smegmatis), 6.25 µM (≈ 2.91 µg/mL); in test [6] (Mycolicibacterium smegmatis), 6.25 µM (≈ 2.91 µg/mL); in test [7] (Mycolicibacterium smegmatis), 6.25 µM (≈ 2.91 µg/mL); in test [8] (Mycolicibacterium smegmatis), 6.25 µM (≈ 2.91 µg/mL).
Consider `O=C1c2c(O)ccc(O)c2C(=O)c2c(NCCNCCO)ccc(NCCNCCO)c21` [MITOXANTRONE], for which the IC50 in test [3] (Mycolicibacterium smegmatis) was 21.8 µM; in test [4] (Mycolicibacterium smegmatis), 21.8 µM; in test [5] (Mycolicibacterium smegmatis), 5.02 µM; in test [6] (Mycolicibacterium smegmatis), 9.7 µM; in test [7] (Mycolicibacterium smegmatis), 5.02 µM; in test [8] (Mycolicibacterium smegmatis) it was 9.7 µM. In addition, the minimal inhibitory concentration (MIC) in test [3] (Mycolicibacterium smegmatis), in test [4] (Mycolicibacterium smegmatis), in test [5] (Mycolicibacterium smegmatis), in test [6] (Mycolicibacterium smegmatis), in test [7] (Mycolicibacterium smegmatis) and in test [8] (Mycolicibacterium smegmatis) was 50 µM (≈ 22.2 µg/mL) each time.
Regarding `CN1CCN(CCCN2c3ccccc3Sc3ccc(C(F)(F)F)cc32)CC1` [TRIFLUOPERAZINE], the IC50 in test [3] (Mycolicibacterium smegmatis) stood at 12.3 µM; in test [4] (Mycolicibacterium smegmatis) it was 12.3 µM; in test [5] (Mycolicibacterium smegmatis), 3.15 µM; in test [6] (Mycolicibacterium smegmatis), 12.3 µM; in test [7] (Mycolicibacterium smegmatis), 3.15 µM; in test [8] (Mycolicibacterium smegmatis), 12.3 µM. Besides, the minimal inhibitory concentration (MIC) in test [3] (Mycolicibacterium smegmatis), in test [4] (Mycolicibacterium smegmatis), in test [5] (Mycolicibacterium smegmatis), in test [6] (Mycolicibacterium smegmatis), in test [7] (Mycolicibacterium smegmatis) and in test [8] (Mycolicibacterium smegmatis) was 50 µM (≈ 20.4 µg/mL) each time.
On to 4-[sequence] ACID, for which the MIC in test [3] came out at 25 µM; in test [4], 25 µM; in test [5] it was 12.5 µM; in test [6], 6.25 µM; in test [7] it was 12.5 µM; in test [8], 6.25 µM.
With `O=S1(=O)N(CCN2CC=C(c3c[nH]c4cc(F)ccc34)CC2)c2cccc3c2N1CCC3`, the IC50 in test [3] (Mycolicibacterium smegmatis) was determined as 25.1 µM; in test [4] (Mycolicibacterium smegmatis) it was 25.1 µM; in test [5] (Mycolicibacterium smegmatis), 22.3 µM; in test [6] (Mycolicibacterium smegmatis), 25.3 µM; in test [7] (Mycolicibacterium smegmatis), 22.3 µM; in test [8] (Mycolicibacterium smegmatis), 25.3 µM. Moreover, the MIC is 50 µM (≈ 22.6 µg/mL) in test [3] (Mycolicibacterium smegmatis); 50 µM (≈ 22.6 µg/mL) in test [4] (Mycolicibacterium smegmatis); 50 µM (≈ 22.6 µg/mL) in test [5] (Mycolicibacterium smegmatis); 25 µM (≈ 11.3 µg/mL) in test [6] (Mycolicibacterium smegmatis); 50 µM (≈ 22.6 µg/mL) in test [7] (Mycolicibacterium smegmatis); 25 µM (≈ 11.3 µg/mL) in test [8] (Mycolicibacterium smegmatis).

A word on the IC50: it is the concentration needed to halve the response being measured. A word on the MIC: it is the lowest concentration that inhibits growth of the organism.
